Experimental data from US20220186186A1, “COMPOSITION FOR INDUCING DIRECT CONVERSION OF SOMATIC CELL INTO COMMON MYELOID PROGENITOR AND USE THEREOF” (KOREA INSTITUTE OF SCIENCE AND TECHNOLOGY, priority 2020, published 2022).

Tested on: neonatal fibroblasts (HDF-N)
Test: Direct conversion of neonatal fibroblasts to CMP cells, marker expression by flow cytometry (FACS)
Type: cell-based, human
Method: Human dermal fibroblasts derived from human skin were purchased from ThermoFisher (USA). Human neonatal dermal fibroblasts (HDF-N; neonatal-C0045C) and human adult dermal fibroblasts (HDF-A; adult-C0135C) were purchased, respectively.
To confirm direct conversion potential of fibroblasts to CMP cells, flow cytometry (FACS) analyses were performed. Using the antibodies listed below, expression levels of proteins including the hematopoietic stem cell (HSC) membrane marker CD34, the blood cell membrane marker CD45, and the common myeloid progenitor (CMP) membrane marker CD14, were confirmed. The antibodies used are as follows: • FITC conjugated mouse anti-human CD34 monoclonal antibodies, eBioscience • APC conjugated mouse anti-human CD45 monoclonal antibodies, eBioscience • APC-eFluoro780 conjugated mouse anti-human CD14 monoclonal antibodies, eBioscience
Cells were dissociated into single cells with accutase and then washed with 1% FBS/PBS solution. After treatment with Fc blocker (BD Bioscience) for 10 minutes to prevent non-specific antigen binding, the cells were blocked for 15 minutes using 1% FBS/PBS solution. […] Subsequent to the reaction, the cells were washed twice with cold PBS solution and analyzed by flow cytometry using CytoFLEX by Beckman, and data were analyzed using the CytExpert program. […]

Cc1cccc(-c2n[nH]cc2-c2ccc3ncccc3n2)n1 [Example 3-1, 2-[3-(6-methylpyridin-2-yl)-1H-pyrazol-4-yl]-1,5-naphthyridine]
expression of the blood cell marker CD45 (28 days, inhibitor alone, Table 3 and FIG. 18): increase | CD45-expressing cell (%) compared to negative control group (Cnt) (cultured 28 days in reprogramming media with the chemical composition, Table 3): 6.36%
